From patent publication US5652232A, “Benzolactam derivatives” (Shionogi & Co., Ltd., priority 1993, dated 1997)
Converted amounts (≈) assume the structure as drawn. Read-outs that look alike come from different tables or passages of the source.

How the values were obtained:
HIV (HIV-1IIIB strain) = assay: Antiviral activity: inhibition of HIV cytotoxicity in MT-4 cells (MTT); format: cell-based; details: Human immunodeficiency virus 1, MT4, 120 h, read-out: EC50: concentration of the compound that achieved 50% inhibition of cytotoxicity by the virus
Experimental: (§1) (A) A human T-cell strain MOLT-4 clone 8, persistently infected with HIV (HIV-1IIIB strain), was cultured in RPMI-1640 medium supplemented with 10% fetal bovine serum. The culture supernatant was then filtered and stored at -80° C. after a measurement of viral titer. Each of test compounds was diluted with the above culture medium so as to be a predetermined concentration, and 50 μl of the solution was added to each of wells of a 96-well microtiter plate. Then, after the addition of each 100 μl of MT-4 cell suspension (3.5×10^4 cells) to the well, the above-prepared HIV-containing supernatant was diluted with the above medium and 50μl of the dilution (60 plaque forming units) was added to each well.
(§2) (B) After incubation of the 96-well microtiter plate in a CO2 -incubator at 37° C. for 5 days, 30 μl of MTT [3-(4,5-dimethylthiazole-2-yl)-2,5-diphenyltetrazorium bromide, 5 mg/ml, PBS] was added to each well and incubation was continued for 1 hour.
(§3) Cells having survived reduced MTT to precipitate formazan. 150 μl of culture supernatant was removed from each well and 150 μl of a solubilizing solution (10% Triton X-100 and isopropanol supplemented with 0.4% (V/V) HCl) was added to each well and the plate was shaken by using a plate mixer to dissolve the formazan. The dissolved formazan was measured by O.D. at 540 nm and the results were compared with referenced control. EC50 (μg/ml) was defined as a concentration of the compound that achieved 50% inhibition of cytotoxicity by the virus. DMSO was used as a solvent and the tested concentrations were 0.0001-10 μg/ml.

[1] = Cytotoxicity against MT-4 cells (MTT); format: cell-based; details: human
Experimental: as §1, §2, §3
Cytotoxicities of the test compounds against the MT-4 cells were measured in the same manner as step (A) of the above-described antiviral activity test, provided that 50 μl of the culture medium was added to each well instead of the HIV-containing supernatant (virus solution), which was followed by the same treatment as step (B). CC50 (μg/ml) was defined as a concentration of test compound inducing 50% cytotoxicity.

[2] = MT-4 cells, no virus, 5 days at 37° C., MTT, read-out: CC50: concentration of test compound inducing 50% cytotoxicity

Structure (SMILES)	EC50 (HIV (HIV-1IIIB strain)) [mg/L]	CC50 at 120 h [1, 2] [mg/L]	CC50 at 120 h ([1]; mt-4 cells) [mg/L]
CCCCCCCCCCc1ccc2c(c1)N(C)[C@H](C(C)C)C(=O)N[C@H](CO)CC2 (relative stereo) [epi-BL-V9-310]	0.3 (≈ 0.72 µM)	5 to 10 (≈ 12 to 24 µM)	
CCCCCCCCCCc1ccc2c(c1)N(C)[C@@H](C(C)C)C(=O)N[C@H](CO)CC2 (relative stereo) [BL-V9-310]	2.5 to 5 (≈ 6 to 12 µM)	10 (≈ 24 µM)	
CC(C)[C@H]1C(=O)N[C@@H](CO)Cc2ccccc2N1C (relative stereo) [epi-BL-V8]	2.5 to 5 (≈ 9.53 to 19.1 µM)	10 (≈ 38.1 µM)	
CC(C)[C@H]1C(=O)N[C@H](CO)CCCc2ccccc2N1C (relative stereo) [BL-V10]	> 10		> 10
CCCCCCCCCCc1ccc2c(c1)N(C)[C@@H](C(C)C)C(=O)N[C@@H](CO)C2 (relative stereo) [(±)-epi-BL-V8-310]	0.13 (≈ 0.323 µM)	1 (≈ 2.48 µM)	
CCCCCCCCCCc1ccc2c(c1)N(C)[C@@H](C(C)C)C(=O)N[C@H](CO)C2 [(-)-BL-V8-310]	0.003 (≈ 0.00745 µM)	5 to 10 (≈ 12.4 to 24.8 µM)	
CC(C)[C@@H]1C(=O)N[C@H](CO)Cc2cc3c(cc2N1C)C(C)(C)CCC3(C)C (relative stereo) [epi-BL-V8-23T]		1 to 10 (≈ 2.68 to 26.8 µM)	
CCCCCCCCCCc1ccc2c(c1)N(C)[C@H](C(C)C)C(=O)N[C@@H](CO)C2 [(+)-BL-V8-310]	0.05 to 0.1 (≈ 0.124 to 0.248 µM)	5 to 10 (≈ 12.4 to 24.8 µM)	
CCCCCCCCCCc1ccc2c(c1)N(C)[C@H](C(C)C)C(=O)N[C@H](CO)C2 [(+)-epi-BL-V8-310]	0.1 (≈ 0.248 µM)	5 to 10 (≈ 12.4 to 24.8 µM)	
CC(C)[C@H]1C(=O)N[C@H](CO)CCc2ccccc2N1C (relative stereo) [BL-V9]	> 10	> 10	
CC(C)[C@H]1C(=O)N[C@H](CO)Cc2cc3c(cc2N1C)C(C)(C)CCC3(C)C (relative stereo) [BL-V8-23T]		1 to 10 (≈ 2.68 to 26.8 µM)	
CC(C)[C@H]1C(=O)N[C@@H](CO)CCCc2ccccc2N1C (relative stereo) [epi-BL-V10]	> 10		> 10
CCCCCCCCCCc1ccc2c(c1)N(C)[C@@H](C(C)C)C(=O)N[C@H](CO)C2 (relative stereo) [(±)-BL-V8-310]	0.001 to 0.01 (≈ 0.00248 to 0.0248 µM)	1 (≈ 2.48 µM)	
CC(C)[C@H]1C(=O)N[C@H](CO)Cc2ccccc2N1C (relative stereo) [BL-V8]	0.1 to 1 (≈ 0.381 to 3.81 µM)	10 (≈ 38.1 µM)	
CCCCCCCCCCc1ccc2c(c1)N(C)[C@@H](C(C)C)C(=O)N[C@@H](CO)C2 [(-)-epi-BL-V8-310]	0.16 (≈ 0.397 µM)	2.5 to 5 (≈ 6.21 to 12.4 µM)	
CC(C)[C@H]1C(=O)N[C@@H](CO)CCc2ccccc2N1C (relative stereo) [epi-BL-V9]	> 10	> 10	
